Experimental data as given in PubChem BioAssay AID686932 (Sanford-Burnham Center for Chemical Genomics, 2013).
Several values for one entry are separate records, joined by “and”; a condition that tells them apart may be missing. Equal entries are not always repeated. Activity calls are given as the source filed them.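 Rule for the calls: active = IC50 against MMP-2 at or below 100 µM; inactive = the rest.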

The compounds below were run against 72 kDa type IV collagenase (Homo sapiens) (UniProt P08253) (assay: human MMP-2 protease inhibitors, selectivity check – biochemical, fluorescence, counter-screen for RPN11 inhibitor project, SAR follow-up (AID 686932)). Conditions: recombinant MMP-2, FRET peptide cleavage fluorescence.
Chain of 72 kDa type IV collagenase (Homo sapiens) (P08253 whole entry, looked up): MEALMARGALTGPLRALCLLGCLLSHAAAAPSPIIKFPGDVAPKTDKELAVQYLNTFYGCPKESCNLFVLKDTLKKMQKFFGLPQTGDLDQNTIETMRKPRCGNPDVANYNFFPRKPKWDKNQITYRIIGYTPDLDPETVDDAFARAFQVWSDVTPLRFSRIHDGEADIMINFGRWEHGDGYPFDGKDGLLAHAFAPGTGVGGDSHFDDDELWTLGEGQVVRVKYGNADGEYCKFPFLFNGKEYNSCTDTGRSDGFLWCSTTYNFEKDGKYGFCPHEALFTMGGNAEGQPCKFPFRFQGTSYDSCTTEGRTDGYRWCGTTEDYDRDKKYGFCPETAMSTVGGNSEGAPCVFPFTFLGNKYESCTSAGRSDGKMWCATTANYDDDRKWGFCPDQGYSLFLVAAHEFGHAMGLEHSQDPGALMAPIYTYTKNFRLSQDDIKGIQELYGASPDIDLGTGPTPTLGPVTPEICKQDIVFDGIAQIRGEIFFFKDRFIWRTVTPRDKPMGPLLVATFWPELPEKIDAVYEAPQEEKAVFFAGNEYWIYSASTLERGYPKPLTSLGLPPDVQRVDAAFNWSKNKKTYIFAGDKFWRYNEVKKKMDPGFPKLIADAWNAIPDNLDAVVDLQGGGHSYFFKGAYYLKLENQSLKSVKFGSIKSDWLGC

Structure (SMILES)	IC50
O=C(Sc1cccc2cccnc12)c1ccc(F)c(F)c1	> 99 µM (inactive)
COC(=O)[C@H](C)N(C)C(=O)c1cnc2c(SSc3cccc4cc(C(=O)N(C)[C@@H](C)C(=O)OC)cnc34)cccc2c1	> 99 µM (inactive)
COC(=O)[C@@H](NC(=O)c1cnc2c(SSc3cccc4cc(C(=O)N[C@H](C(=O)OC)C(C)C)cnc34)cccc2c1)C(C)C	> 99 µM (inactive)
CCOc1ccccc1C(=O)Sc1cccc2cccnc12	17 µM and > 99 µM (inactive)
COc1cccc(C(=O)Sc2cccc3cccnc23)c1	> 99 µM (inactive)
COC(=O)[C@H](C)NC(=O)c1cnc2c(SSc3cccc4cc(C(=O)N[C@@H](C)C(=O)OC)cnc34)cccc2c1	> 99 µM (inactive)
COc1ccc(C(=O)Sc2cccc3cccnc23)cc1OC	> 99 µM (inactive)
O=C(Sc1cccc2cccnc12)c1cccc(Cl)c1	> 99 µM (inactive)
COC(=O)[C@H](C)NC(=O)c1ccnc2c(SSc3cccc4c(C(=O)N[C@@H](C)C(=O)OC)ccnc34)cccc12	> 99 µM (inactive)
O=C(Sc1cccc2cccnc12)c1ccc2c(c1)OCO2	> 99 µM (inactive)
CC(C)Cc1ccc(C(=O)Sc2cccc3cccnc23)cc1	> 99 µM (inactive)
CCCc1ccc(C(=O)Sc2cccc3cccnc23)cc1	7.85 µM
CC(C)C[C@H](NC(=O)c1cnc2c(SSc3cccc4cc(C(=O)N[C@@H](CC(C)C)C(=O)O)cnc34)cccc2c1)C(=O)O	9.21 µM
COC(=O)[C@@H]1CCCN1C(=O)c1cnc2c(SSc3cccc4cc(C(=O)N5CCC[C@H]5C(=O)OC)cnc34)cccc2c1	> 99 µM (inactive)
O=C(Sc1cccc2cccnc12)c1ccccc1OC(F)(F)F	> 99 µM (inactive)
O=C(Sc1cccc2cccnc12)c1ccccc1F	> 99 µM (inactive)
O=C(Sc1cccc2cccnc12)c1ccccc1Br	> 99 µM (inactive)
COC(=O)[C@H](CO)NC(=O)c1cnc2c(SSc3cccc4cc(C(=O)N[C@@H](CO)C(=O)OC)cnc34)cccc2c1	> 99 µM (inactive)
O=C(Sc1cccc2cccnc12)c1ccccc1	21.8 µM
O=C(Sc1cccc2cccnc12)c1ccc(F)cc1F	9.07 µM
N#Cc1ccc(C(=O)Sc2cccc3cccnc23)cc1	3.38 µM
Cc1ccccc1C(=O)Sc1cccc2cccnc12	> 99 µM (inactive)
COC(=O)C[C@H](NC(=O)c1cnc2c(SSc3cccc4cc(C(=O)N[C@@H](CC(=O)OC)C(=O)OC)cnc34)cccc2c1)C(=O)OC	> 99 µM (inactive)
COC(=O)[C@H](CC(C)C)NC(=O)c1cnc2c(SSc3cccc4cc(C(=O)N[C@@H](CC(C)C)C(=O)OC)cnc34)cccc2c1	> 99 µM (inactive)

Structure (SMILES)	IC50
CC[C@@H](C)[C@H](NC(=O)c1cnc2c(SSc3cccc4cc(C(=O)N[C@H](C(=O)O)[C@H](C)CC)cnc34)cccc2c1)C(=O)O	20.2 µM
O=C(Sc1cccc2cccnc12)C1CCCCC1	20.5 µM
O=C(Sc1cccc2cccnc12)c1ccc([N+](=O)[O-])cc1	> 99 µM (inactive)
O=C(Sc1cccc2cccnc12)c1ccccc1Cl	> 99 µM (inactive)
O=C(Sc1cccc2cccnc12)c1c(Cl)cccc1Cl	8.92 µM
O=C(Sc1cccc2cccnc12)c1cccc2ccccc12	29.3 µM
CC(C)[C@H](NC(=O)c1cnc2c(SSc3cccc4cc(C(=O)N[C@H](C(=O)O)C(C)C)cnc34)cccc2c1)C(=O)O	> 99 µM (inactive)
O=C(Sc1cccc2cccnc12)c1ccccc1[N+](=O)[O-]	inactive
N#Cc1cccc(C(=O)Sc2cccc3cccnc23)c1	> 99 µM (inactive)
O=C(Sc1cccc2cccnc12)c1cccc(C(F)(F)F)c1	> 99 µM (inactive)
O=C(O)[C@@H]1CCCN1C(=O)c1cnc2c(SSc3cccc4cc(C(=O)N5CCC[C@H]5C(=O)O)cnc34)cccc2c1	16.3 µM
CC(C)(C)OC(=O)CCNC(=O)c1cnc2c(SSc3cccc4cc(C(=O)NCCC(=O)OC(C)(C)C)cnc34)cccc2c1	> 99 µM (inactive)
COc1ccc(C(=O)Sc2cccc3cccnc23)cc1F	> 99 µM (inactive)
COc1ccccc1C(=O)Sc1cccc2cccnc12	> 99 µM (inactive)
COC(=O)c1cnc2c(SSc3cccc4cc(C(=O)OC)cnc34)cccc2c1	24 µM
CC[C@@H](C)[C@H](NC(=O)c1cnc2c(SSc3cccc4cc(C(=O)N[C@H](C(=O)OC)[C@@H](C)CC)cnc34)cccc2c1)C(=O)OC	> 99 µM (inactive)
O=C(Sc1cccc2cccnc12)c1ccc(C(F)(F)F)cc1	> 99 µM (inactive)
O=C(Sc1cccc2cccnc12)c1ccccc1I	7.06 µM
C[C@@H](C(=O)O)N(C)C(=O)c1cnc2c(SSc3cccc4cc(C(=O)N(C)[C@@H](C)C(=O)O)cnc34)cccc2c1	> 99 µM (inactive)
Cc1ccc(C(=O)Sc2cccc3cccnc23)cc1	> 99 µM (inactive)
O=C(Sc1cccc2cccnc12)c1ccc(F)cc1	> 99 µM (inactive)
Cc1cccc(C(=O)Sc2cccc3cccnc23)c1	38.5 µM
COc1ccc(C(=O)Sc2cccc3cccnc23)cc1	16.2 µM
O=C(O)c1cnc2c(SSc3cccc4cc(C(=O)O)cnc34)cccc2c1	> 99 µM (inactive)
